Reference: patent EP0346108A2, “Anti-infective nucleosides” (THE WELLCOME FOUNDATION LIMITED, priority 1988, dated 1989)

Assays:
[1] = test system: Varicella Zoster Virus (VZV); assay: VZV plaque reduction assay in monolayers of MRC5 cells; assay type: cell-based; conditions: MRC5 cells (human embryonic lung), read-out: ID₅₀(µm) VZV
Experimental: Varicella Zoster Virus (VZV) is assayed in monolayers of MRC5 cells (human embryonic lung) in multiwell trays. Activity of compounds is determined in the plaque reduction assay, in which a cell monolayer is infected with a suspension of VZV. A range of concentrations of the compound to be tested (of known molarity) is then incorporated into the cell monolayer. Plaque numbers of each concentration are expressed as percentage of the control and a dose-response curve is drawn. From this curve the 50% inhibitory concentration (IC₅₀) is estimated.

Vero cells = assay: Cell toxicity, cell growth inhibition assay (MTT uptake); assay type: cell-based; conditions: 50% inhibition of cell viability at 96 hours
Experimental: Cell toxicity is assessed in cell growth inhibition assay. Subconfluent cultures of Vero cells grown on 96-well microtiter dishes are exposed to different dilutions of drug, and cell viability determined daily on replicate cultures using uptake of a tetrazolium dye (MTT). The concentration required for a 50% inhibition of cell vaibility at 96 hours is termed CCID₅₀.

[2] = Determination of oral bioavailability by urinary recovery as parent compound; conditions: gavage, 50 mg/kg; urine collected for 24 and 48 hours post-dose
Experimental: Long Evans Rats were administered the compound to be tested by gavage at a dose of 50 mg/kg. The urine was collected for 24 and 48 hours post-dose, ultrafiltered, and analysed by reverse-phase high-pressure liquid chromatography. The oral bioavailability of the compound was expressed as the percent of the dose excreted in the urine as the parent unesterified compound.

Row | Compound | IC50 [1] [nM] | CCID₅₀ (Vero cells) | Urinary Recovery (% of dose) as parent compound [2]
1 | CC#Cc1cn([C@@H]2O[C@H](COC(=O)[C@@H](N)C(C)C)[C@@H](O)[C@@H]2O)c(=O)[nH]c1=O [Example 20, 5-Prop-1-ynyl-1-(5-0-L-valyl-β-D-arabinofuranosyl)uracil] | < 1000 | >500 | 35.90 % of dose
2 | CC#Cc1cn([C@@H]2O[C@H](COC(=O)C(C)C)[C@@H](O)[C@@H]2O)c(=O)[nH]c1=O [Example 1, 1-(5-0-Isobutyryl-β-D-arabinofuranosyl)-5-prop-1-ynyluracil] |  |  | 40.35 % of dose
